Cytotoxicity data for 99 compounds are collected here from ChEMBL document CHEMBL3507680, “University of Dundee, Gates Library screen for HepG2 cell viability”.

This data set can be described thus: Human HepG2 cell viability assay in 384 well format. The format is toxicity, cell-based. Set-up: dose 125 nL, time 70.5 hour; concentration not given beside the values. As to conditions: HepG2 cells, read-out: Inhibition.
Consider `CCOc1no[n+]([O-])c1-c1ccccc1`, for which the cytotoxicity at 70.5 h was -3.07%.
As to `CS(=O)(=O)C1=C(O)C(=O)N(c2ccccc2)C1c1ccccc1` (centres undefined), the cytotoxicity at 70.5 h was -4.58%.
Take `Cc1ccc2c(c1)c(C)cc(=O)n2CCC(=O)O`: the cytotoxicity at 70.5 h was -6.14%.
As for `CC(C)NC(=O)N1CCN(S(=O)(=O)C2CC2)CC2(CC(=O)N(C)C2)C1` (centres undefined), the figure is 0.827%; as for `O=C1CCC2(CCCN(c3ncc(F)cn3)CC2)N1CC1CC1` (centres undefined), -1.42%; as for `COCC1CC2(CCN(C(=O)c3occc3C)CC2)CO1` (centres undefined), -6.11%.
`O=C(c1ccsc1)N1CC(C(=O)N2CCOCC2)C2(CCOCC2)C1` (centres undefined): the cytotoxicity at 70.5 h was -1.97%.
As for `O=C(CCc1ccccc1)N1CCn2cc(CN3CCCC3)nc2C1`, the figure is -11.7%.
As to `Cc1cc(C(=O)N2C[C@@H]3COC[C@]3(COCc3cccnc3)C2)no1`, the cytotoxicity at 70.5 h is -12%.
Take `COc1ccc2c(c1)C1(CCN(Cc3ccoc3)CC1)N(C)CC2`: the cytotoxicity at 70.5 h was -5.64%.
On to `Cn1nc(C(=O)NN2CCOCC2)c(Cl)c1C(F)(F)F`, for which the cytotoxicity at 70.5 h was -3.83%.
Consider `CC(C(=O)NN1CCOCC1)n1nc(C(F)(F)F)c(Cl)c1C1CC1` (centres undefined), for which the cytotoxicity at 70.5 h stood at 6.2%.
As for `N#Cc1cc(C#N)c(SCC(=O)Nc2ccc(F)cc2)nc1N`, the figure is 5.41%; as for `CCC(=O)c1ccc(Br)cc1NN1c2cc(Br)ccc2C(=O)C1(C)OC` (centres undefined), 13.3%.
For `CCC1=NN2C(=N)/C(=C/c3cccc(Cl)c3)C(=O)N=C2S1`, the cytotoxicity at 70.5 h was -5.39%.
For the compound `CN(C)c1nc2n(c(=O)n1)CCN2C(=O)Nc1cccc(Cl)c1`, the cytotoxicity at 70.5 h was -9.23%.
Consider `CCOC(=O)Cn1cnc2nc3n(c2c1=O)CCC3`, for which the cytotoxicity at 70.5 h was -2.23%.
As for `OC(CN1CCOCC1)c1ccc(Br)cc1` (centres undefined), the cytotoxicity at 70.5 h was -4.1%.
As for `CCc1oc2ccc(NS(C)(=O)=O)cc2c1C(=O)OC`, the cytotoxicity at 70.5 h is 0.398%.
Turning to `CCS(=O)(=O)Nc1ccc2oc(C)c(C(=O)OC)c2c1`, the cytotoxicity at 70.5 h was -15%.
With `CC/N=c1\c(NC(=O)C(C)(C)C)c(O)oc2ccccc12`, the cytotoxicity at 70.5 h was 22.9%.
Turning to `CCOC(=O)c1sc(NC(=O)COC)c(C#N)c1C`, the cytotoxicity at 70.5 h worked out at 28.6%.
As for `COCC(=O)NC[C@H]1CC[C@H](c2ccnc3ncnn32)CC1`, the figure is -8.99%; as for `Cc1cccc(NC(=O)c2cncc(C3CCNCC3)n2)n1`, -5.87%.
For the compound `NC(=O)c1cn[nH]c1C1CCCN1C(=O)c1ccccc1` (centres undefined), the cytotoxicity at 70.5 h was -5.37%.
In the case of `c1nnc(Nc2cncc(C3CCCN3CC3CC3)n2)s1` (centres undefined), the cytotoxicity at 70.5 h worked out at 0.394%.
`Cc1nn(C)cc1NC(=O)CN1CCC(Oc2cnccn2)CC1`: the cytotoxicity at 70.5 h is -4.13%.
As for `Cc1n[nH]c(C)c1S(=O)(=O)N1CCC(Oc2cnccn2)CC1`, the figure is -2.37%; as for `Cc1ccccc1OC1CCN(S(=O)(=O)c2c(C)n[nH]c2C)CC1`, -6.57%.
As to `CC(=O)N1CCC(C)(c2nc(C)no2)CC1`, the cytotoxicity at 70.5 h is -5%.
As for `CN1CCC(c2[nH]ncc2S(C)(=O)=O)CC1`, the cytotoxicity at 70.5 h is -7.29%.
On to `Cc1nc2c(c(Nc3ccccn3)n1)CN(S(C)(=O)=O)CC2`, for which the cytotoxicity at 70.5 h is 23.4%.
Take `O=C(NCC1(O)COCCN(Cc2ccc(O)cc2)C1)c1cnccn1` (centres undefined): the cytotoxicity at 70.5 h is -9.12%.
`Cc1cc(C)nc(N2CC=C[C@H]2C(=O)NCc2ccc3c(c2)OCO3)n1`: the cytotoxicity at 70.5 h was -3.34%.
For the compound `c1cc(CCNc2ncc(-c3cnccn3)c(C3CC3)n2)ccn1`, the cytotoxicity at 70.5 h is -5.03%.
As for `Cc1c(C2=NS(=O)(=O)N(C)C(C(=O)Nc3ccc(Br)cc3)=C2)cnn1C`, the cytotoxicity at 70.5 h was determined as 22.2%.
In the case of `Cc1nn(C)cc1C1=NS(=O)(=O)N(C)C(C(=O)Nc2ccc(Br)cc2)=C1`, the cytotoxicity at 70.5 h was found to be 0.0552%.
In the case of `Cc1cc(-c2ccc(=O)n(C3CCN(C(=O)C4CCC4)CC3)n2)c(C)o1`, the cytotoxicity at 70.5 h is 1.9%.
With `CCCS(=O)(=O)N1CCC(n2nc(-c3cc(C)oc3C)ccc2=O)CC1`, the cytotoxicity at 70.5 h stood at 8.97%.
Consider `O=C(O)[C@@H]1CCN(C(=O)c2cscn2)[C@@H]1c1ccc(F)cc1`, for which the cytotoxicity at 70.5 h was -2.87%.
For the compound `Cc1nccn1-c1ccc(CN2CC3C[C@@H](O)CN3C[C@@H]2C)cc1` (some centres undefined), the cytotoxicity at 70.5 h was -7.07%.
Consider `CNC(=O)c1cn[nH]c1C1CCCN1C(=O)c1ccccn1` (centres undefined), for which the cytotoxicity at 70.5 h was -1.79%.
For `CN1CCOC(c2cncc(CCC(=O)N(C)C)n2)C1` (centres undefined), the cytotoxicity at 70.5 h was -2.29%.
For `CNc1ncc(CN2CCCC2c2[nH]ncc2C(=O)N(C)C)cn1` (centres undefined), the cytotoxicity at 70.5 h is -3.21%.
Regarding `CC(C)c1ncc(CN2CCC(c3n[nH]cc3C(=O)N(C)C)C2)cn1` (centres undefined), the cytotoxicity at 70.5 h is -2.3%.
As for `Cc1cc(C)nc(C2CCCN2C(=O)c2cnccn2)n1` (centres undefined), the figure is -2.97%.
As for `CN1CCOC(c2cncc(CCC(N)=O)n2)C1` (centres undefined), the cytotoxicity at 70.5 h is -3.04%.
As for `Cc1cc(-c2cccnc2)nc(C2CCCN2S(C)(=O)=O)n1` (centres undefined), the figure is -3.42%; as for `CCCC(=O)N1CCC(c2cc[nH]n2)C1` (centres undefined), 0.0603%; as for `CC(C)c1nccn1-c1nccnc1C1CCCN1Cc1cccnc1` (centres undefined), -1.81%.
As for `CCn1ncc(S(=O)(=O)N2CCCC3(CC=CNC3=O)C2)c1C` (centres undefined), the figure is -1.6%; as for `Cc1ccc(C)c2c(C)c(C(=O)NCC[S+](C)[O-])[nH]c12` (centres undefined), -4.15%; as for `C[C@@H]1CN2C[C@H](O)CC2CN1Cc1ccc2nccnc2c1` (some centres undefined), 35.6%.
As for `COc1ccccc1C1(O)CCCN(C(=O)c2ccnn2C(C)C)C1` (centres undefined), the figure is -1.5%; as for `CCN1CCCC1CNCc1cc2cc3c(cc2[nH]c1=O)OCCO3` (centres undefined), -1.38%.
On to `Cc1nc(O)c2c(n1)CCN(Cc1cc(C)sc1C)CC2`, for which the cytotoxicity at 70.5 h was determined as 23.6%.
In the case of `CC(C)c1nc(O)c2nnn(C[C@@H]3CCCN(Cc4cccs4)C3)c2n1`, the cytotoxicity at 70.5 h came out at 1.47%.
On to `CCN1CCCC1CNCc1cc2cc(C)c(C)cc2[nH]c1=O` (centres undefined), for which the cytotoxicity at 70.5 h is -2.24%.
`CCN1CCCC1CNCc1cc2cc(OC)c(OC)cc2[nH]c1=O` (centres undefined): the cytotoxicity at 70.5 h was -1.47%.
With `C[C@H]1CN2C[C@H](O)CC2CN1Cc1ccncc1` (some centres undefined), the cytotoxicity at 70.5 h is -1.34%.
For `COc1cccc(OC)c1CNC(Cc1ccsc1)c1ccc(C)cn1` (centres undefined), the cytotoxicity at 70.5 h amounted to 4.63%.
As for `NC1(CN2CCCCC2)CCCCC1`, the figure is -3.49%; as for `Cc1cc(N(C)C)nc(C2(C)CCNCC2)n1`, 46.3%.
`Cc1nc(C2CCCN(S(C)(=O)=O)C2)sc1Br` (centres undefined): the cytotoxicity at 70.5 h is -0.507%.
As for `CC(=O)NCC(=O)N1CCOC(c2cccc(N)n2)C1` (centres undefined), the figure is 15.3%; as for `CN(C)C(=O)C1CCCN(C(=O)c2ccccc2-n2cc(CN)cn2)C1` (centres undefined), 48.5%.
`NCC(=O)N1CCCC(O)(CN2CCN(c3ccccc3)CC2)CC1` (centres undefined): the cytotoxicity at 70.5 h was 4.71%.
As for `Nc1nccnc1CC1CCCN(Cc2cccc3[nH]ccc23)C1` (centres undefined), the cytotoxicity at 70.5 h turned out to be 0.122%.
With `O=C(N[C@@H]1CC[C@@H](N2CCCC2)[C@@H]1O)c1cc2ccccc2[nH]1`, the cytotoxicity at 70.5 h is -5.76%.
In the case of `CC(=O)N1CCCC1c1nc(N(C)C)ncc1-c1ccccc1` (centres undefined), the cytotoxicity at 70.5 h was 23.2%.
As for `CNc1ccc(CC2CCCN(Cc3c[nH]cn3)C2)nn1` (centres undefined), the cytotoxicity at 70.5 h is -3.24%.
Turning to `Cc1cncnc1C1CCN(CC2CC2)CC1`, the cytotoxicity at 70.5 h stood at 19.8%.
In the case of `Cc1cc(N2CCC(Cc3cnccn3)C2)ncn1` (centres undefined), the cytotoxicity at 70.5 h is -7.8%.
For `CC(=O)N1CCOC(c2cncc(CCC(N)=O)n2)C1` (centres undefined), the cytotoxicity at 70.5 h stood at 7.13%.
On to `COCCC(=O)N1CCC(c2ncncc2-c2ccnc(N)c2)C1` (centres undefined), for which the cytotoxicity at 70.5 h was -3.28%.
As for `Cc1ccc(S(=O)(=O)N2CCC(c3n[nH]cc3C(=O)N(C)C)CC2)cc1`, the figure is 8.18%; as for `CN1CCC(c2nccnc2Nc2cnccn2)CC1`, -0.843%.
In the case of `Cc1noc(C)c1CCC(=O)N1CCOCC1CCc1cnccn1` (centres undefined), the cytotoxicity at 70.5 h was found to be 14%.
Turning to `Cc1cc(CN2CCc3nc(N4CCOCC4)nc(O)c3CC2)c(C)s1`, the cytotoxicity at 70.5 h is -0.651%.
Turning to `Cc1cc(C)nc(N2CCC(C(=O)Nc3ccc(C(C)C)cc3)CC2)n1`, the cytotoxicity at 70.5 h is -2.09%.
For the compound `Cc1cc(N(C)C)nc(C2(C)CCCNC2)n1` (centres undefined), the cytotoxicity at 70.5 h turned out to be 18.9%.
Turning to `Nc1nccnc1CC1CCCN(Cc2ccnc3ccccc23)C1` (centres undefined), the cytotoxicity at 70.5 h turned out to be 27.7%.
Take `COCC(=O)N1CCC(O)(CN2CCN(c3ccccc3)CC2)C1` (centres undefined): the cytotoxicity at 70.5 h was -1.6%.
Turning to `c1c[nH]c(CN2CCCC(Cc3ccc(NC4CCCC4)nn3)C2)n1` (centres undefined), the cytotoxicity at 70.5 h is 7.73%.
For the compound `Cc1ccccc1NC(=O)c1cncc(C2CCNCC2)n1`, the cytotoxicity at 70.5 h is -4.64%.
For the compound `CC1(C)Cc2cc(-c3cncn3CCNC3CCS(=O)(=O)C3)ccc2O1` (centres undefined), the cytotoxicity at 70.5 h is -0.723%.
Take `Cc1cc(C)nc(N2CC=C[C@@H]2C(=O)NCc2ccc3c(c2)OCO3)n1`: the cytotoxicity at 70.5 h is -9.16%.
As for `C[C@H]1CN2C[C@H](O)CC2CN1Cc1ccc2nccnc2c1` (some centres undefined), the figure is -1.32%; as for `CN(C)CCNC(=O)c1sc2ccccc2c1C1CCC(CN)CC1` (centres undefined), 8.65%.
With `O=C(NC1COC2(CCN(Cc3ccccn3)CC2)C1)c1ccccn1` (centres undefined), the cytotoxicity at 70.5 h was found to be 3.59%.
As for `O=C(c1cccnc1)N1CCCC2(CCN(c3ccsc3)C2=O)C1` (centres undefined), the figure is 13.9%.
As for `CCS(=O)(=O)N1CCC2(CC1)CC(Oc1ccccn1)CO2` (centres undefined), the cytotoxicity at 70.5 h was -18.2%.
For `Cc1noc([C@@H]2C[C@H]3CN(Cc4cc(C)on4)C[C@H]3O2)n1`, the cytotoxicity at 70.5 h was -4.39%.
For the compound `Cc1ccc(CN2CCn3cc(CN(C)Cc4ccco4)nc3C2)o1`, the cytotoxicity at 70.5 h is 0.0869%.
With `O=C1COC2(COCCN(Cc3cccnc3)C2)CN1c1ccoc1` (centres undefined), the cytotoxicity at 70.5 h was -9.07%.
As for `COCCN1C[C@@H]2CN(Cc3ccsc3)CCC[C@]2(C(=O)O)C1`, the cytotoxicity at 70.5 h is -12.1%.
As for `CCOC(=O)[C@]12CCCN(Cc3ccco3)C[C@H]1CN(CCN(C)C)C2`, the figure is -8.65%; as for `Cn1ccnc1CN(Cc1ccccn1)Cc1ccccc1Cl`, 1.27%.
Take `Cc1ncc(CN(Cc2ccccn2)Cc2ccccc2Cl)n1C`: the cytotoxicity at 70.5 h is 11.6%.
